Reference: PubChem BioAssay (NCI)
“And” between values parts separate entries of the source, which are not always exact repeats. Equal values may be shown once.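 1) Cells in 96-well plates. 2) Compound, 48 h, 5 concentrations. 3) Linear interpolation between surrounding doses. 4) Unreached endpoint = highest concentration. At the GI50, growth is halved. TGI marks complete inhibition of growth.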

Legend:
Assay in all cases: inhibition of tumour cell growth, NCI panel, 48 h
NCI-H522 lung = tested on: NCI-H522 lung
RXF 393 renal = tested on: RXF 393 renal
SR leukemia = tested on: SR leukemia
OVCAR-5 ovarian = tested on: OVCAR-5 ovarian
TK-10 renal = tested on: TK-10 renal
UO-31 renal = tested on: UO-31 renal
NCI/ADR-RES ovarian = tested on: NCI/ADR-RES ovarian
UACC-257 melanoma = tested on: UACC-257 melanoma
SF-539 CNS = tested on: SF-539 CNS
SK-OV-3 ovarian = tested on: SK-OV-3 ovarian

SMILES	GI50 (NCI-H522 lung)	TGI (NCI-H522 lung)	GI50 (RXF 393 renal)	TGI (RXF 393 renal)	GI50 (SR leukemia)	TGI (SR leukemia)	GI50 (OVCAR-5 ovarian)	TGI (OVCAR-5 ovarian)	GI50 (TK-10 renal)	TGI (TK-10 renal)	GI50 (UO-31 renal)	TGI (UO-31 renal)	GI50 (NCI/ADR-RES ovarian)	TGI (NCI/ADR-RES ovarian)	GI50 (UACC-257 melanoma)	TGI (UACC-257 melanoma)	GI50 (SF-539 CNS)	TGI (SF-539 CNS)	GI50 (SK-OV-3 ovarian)	TGI (SK-OV-3 ovarian)
N#Cc1cc(S(=O)(=O)Nc2nc3ccccc3o2)c(SCc2ccccc2)cc1Cl	17 µM	40.4 µM	23.9 µM	53.1 µM	76.5 µM	> 100 µM	27 µM	52 µM	52 µM	> 100 µM	20.4 µM	39.2 µM	29.6 µM	75.8 µM	22.3 µM	55.9 µM	17.9 µM	33.3 µM		
O=P(O)(O)OCC1OC(n2cnc3c(NCc4ccccc4)ncnc32)C(O)C1O (stereo not drawn)	2.16 µM	11.2 µM	1.46 µM	13.8 µM	3.34 µM	> 64.2 µM	3.11 µM	> 100 µM	2.15 µM	30.2 µM	3.38 µM	32.4 µM	1.19 µM	30.7 µM	> 75.2 µM	> 100 µM	1.55 µM	4.73 µM	2.73 µM	11.1 µM
CC(C)c1ccc(NC(=O)Cc2ccc(Nc3ncnc4cc(-c5cnn(CCN(C)C)c5)ccc34)cc2)cc1	1.56 µM	3.94 µM	1.3 µM	3.43 µM	0.107 µM	2.42 µM	1.44 µM	3.28 µM	1.72 µM	3.79 µM	3.02 µM	> 10 µM	> 10 µM	> 10 µM	> 10 µM	> 10 µM	0.571 µM	2.39 µM	1.61 µM	4.81 µM
CC(SCc1ccccc1)C(=O)O (stereo not drawn)		> 100 µM		> 100 µM		> 100 µM		> 100 µM		> 100 µM		> 100 µM		> 100 µM		> 100 µM		> 100 µM		> 100 µM
CC[C@H](C)[C@H](NC(=O)c1cccn1C)C(=O)N(C)[C@H](C[C@@H](OC(C)=O)c1nc(C(=O)N[C@@H](Cc2ccccc2)C[C@H](C)C(=O)OC)cs1)C(C)C	0.0661 µM	2.08 µM			0.0546 µM	> 33.3 µM	0.65 µM	> 33.3 µM	2.61 µM	> 33.3 µM	1.3 µM	> 33.3 µM	1.2 µM	> 33.3 µM	18.2 µM	> 33.3 µM	0.203 µM	1.22 µM	0.124 µM	> 33.3 µM
CCOC(=O)C1=C(C)NC(c2ccco2)=C(C#N)C1c1cccc([N+](=O)[O-])c1 (stereo not drawn)		0.0371 µM			0.0416 µM	17.5 µM	0.0331 µM	99.5 µM	3.06 µM	49.4 µM	0.14 µM	27.9 µM		0.356 µM	0.0882 µM	26.2 µM		0.0128 µM	0.738 µM	70.9 µM
C=C1C(=O)O[C@H]2C[C@@H]1C(=O)CC(C)CCCC(C)=CCC[C@@]2(C)O (stereo partly drawn)		> 25 µM		> 25 µM		> 25 µM		> 25 µM		> 25 µM		> 25 µM		> 25 µM		> 25 µM		> 25 µM		> 25 µM
CC1=NOC(=O)/C1=C/c1ccc2c(c1)OCO2		> 100 µM		30.7 µM		52.5 µM		> 100 µM		> 100 µM		38.9 µM		> 100 µM		> 100 µM		64.9 µM		> 100 µM
CN(C)CCCNc1nc2ccccc2c2[nH]c3ccccc3c12	1.32 µM	11.1 µM	1.23 µM	3.55 µM	0.616 µM	50 µM	1.28 µM	9.36 µM	1.45 µM	4.04 µM	1.69 µM	10.9 µM	0.769 µM	4.08 µM	3.48 µM	14.7 µM	0.654 µM	1.9 µM	1.49 µM	6.11 µM
CS(=O)(=O)N(c1cc(-c2ccc3ncnc(Nc4ccc(F)c(Cl)c4)c3c2)cnc1Cl)S(C)(=O)=O	1.57 µM	11.1 µM	0.711 µM	3.4 µM	4.35 µM	> 100 µM	0.795 µM	10.2 µM	0.44 µM	3.73 µM	0.27 µM	2.99 µM	2.54 µM	20.9 µM	1.11 µM	14.5 µM	1.05 µM	4.83 µM	0.6 µM	4.31 µM
Cc1cc(O)c(-c2ccc([C@@H](C)CN(C)C)cc2)c2c1[nH]c(=O)c1sccc12	0.436 µM	2.9 µM	0.167 µM	0.53 µM	0.363 µM	26.6 µM	2.25 µM	17.5 µM	0.647 µM	5.87 µM	0.287 µM	1.88 µM	2.72 µM	24.1 µM	1.76 µM	6.86 µM	0.219 µM	1.97 µM	0.332 µM	3.65 µM
O=C(O)c1ccc(SSc2ccc(C(=O)O)cn2)nc1		> 100 µM		> 100 µM		> 100 µM		> 100 µM		> 100 µM				> 100 µM		> 100 µM		> 100 µM		> 100 µM
CN1CCN(CCCOc2cc(O)c3c(=O)cc(-c4ccccc4)oc3c2)CC1	21.6 µM	47 µM	30.2 µM	84 µM	16.9 µM	44.6 µM	20.3 µM	43.6 µM	20.5 µM	48.3 µM	16.9 µM	47.3 µM	18.6 µM	43.2 µM	19.4 µM	41.1 µM	17.2 µM	33.1 µM	19.4 µM	38.4 µM
C[C@@H]1CC[C@@]2(NC1)O[C@H]1C[C@H]3[C@@H]4CC[C@H]5C[C@@H](O)CC[C@]5(C)[C@H]4CC[C@]3(C)[C@H]1[C@@H]2C		> 100 µM		> 100 µM		> 100 µM		> 100 µM		> 100 µM		> 100 µM		> 100 µM		> 100 µM		77.6 µM		> 100 µM
C=C1CCC2C3(C)COC(c4ccccc4Cl)OC3CCC2(C)C1/C=C/C1=CCOC1=O (stereo not drawn)	4.24 µM	> 100 µM	> 100 µM	> 100 µM	3.97 µM	> 100 µM	> 100 µM	> 100 µM	19 µM	> 100 µM	6.95 µM	> 100 µM	7.74 µM	> 100 µM	9.09 µM	> 100 µM	24 µM	> 100 µM	> 100 µM	> 100 µM
Nc1ccc(/C=C/c2ccc3cccnc3c2)cc1				> 100 µM		> 100 µM		> 100 µM		> 100 µM		> 100 µM		> 100 µM		> 100 µM		> 100 µM		> 100 µM
COc1cc2nccc(Oc3ccc(NC(=O)c4cn(C(C)C)c(=O)n(-c5ccc(F)cc5)c4=O)cc3F)c2cc1OC	> 22.5 µM	> 100 µM	> 21.1 µM	> 100 µM	> 100 µM	> 100 µM	5.6 µM	> 100 µM	> 70.7 µM	> 100 µM	3.65 µM	> 40 µM	> 100 µM	> 100 µM	7.65 µM	> 77.5 µM	1.6 µM	3.38 µM	> 100 µM	> 100 µM
CNC(=O)c1cncc(/C=C/c2ccccc2Cl)c1	> 25 µM	> 25 µM	> 25 µM	> 25 µM	> 22.9 µM	> 25 µM	> 25 µM	> 25 µM	> 25 µM	> 25 µM	> 23.6 µM	> 25 µM	> 25 µM	> 25 µM	> 25 µM	> 25 µM	> 25 µM	> 25 µM	> 25 µM	> 25 µM
CCN(Cc1c(F)cccc1Cl)c1ccc(CO)c(Cl)c1	13.8 µM	28.5 µM	6.31 µM	27 µM	16.5 µM	42.7 µM		0.106 µM			12.9 µM	26.1 µM	10.4 µM	28.7 µM	< 0.0248 µM	0.05 µM	15.5 µM	29.8 µM	2.52 µM	13 µM
COC(=O)N[C@H]1CCc2c(Cl)c(OC)c(OC)c(OC)c2-c2ccc(SC)c(=O)cc21	< 0.01 µM	20.3 µM			< 0.01 µM	> 66.6 µM	< 0.01 µM	> 94.8 µM	15.8 µM	> 100 µM	< 0.0215 µM	51.7 µM	0.0155 µM	0.509 µM	24.9 µM	> 100 µM	< 0.01 µM	< 0.01 µM	< 0.01 µM	> 100 µM
CCOC(=O)CN1C(=O)c2cc([N+](=O)[O-])cc3cc([N+](=O)[O-])cc(c23)C1=O		46.3 µM		83 µM		30.7 µM		> 100 µM		> 100 µM		> 100 µM		> 100 µM		> 100 µM		84.3 µM		> 100 µM
Cc1cccc2c1[nH]c(=O)c1c3ccccc3cn21	6.52 µM	64.1 µM	9.19 µM	38.4 µM	1.54 µM	4.15 µM	17.9 µM	65.4 µM	26.8 µM	86.2 µM	5.66 µM	> 100 µM	12.1 µM	34.8 µM	16.6 µM	94.4 µM	3.85 µM	15.8 µM	27.5 µM	> 100 µM
COCCNc1cncc(C(N)=O)c1		> 100 µM				> 100 µM		> 100 µM		> 100 µM		> 100 µM		> 100 µM		> 100 µM		> 100 µM		> 100 µM
CCOC(=O)/C=C/c1cccc(F)c1		> 100 µM		> 100 µM		> 100 µM		> 100 µM		> 100 µM		> 100 µM		> 100 µM		> 100 µM		> 100 µM		
CCC1=C(CC2NCCc3ccccc32)CC2c3cc(OC)c(OC)cc3CCN2C1 (stereo not drawn)	4.22 µM		2.67 µM	13.5 µM and 5.3 µM	2.86 µM	8.77 µM and 3.89 µM	6.15 µM		6.08 µM	30.4 µM and 3.83 µM	4.73 µM	29.7 µM and 3.35 µM	6.7 µM	50.9 µM and 12.4 µM	10 µM	24.5 µM and 9.49 µM	4.84 µM	16.4 µM and 2.85 µM	4.07 µM	25.6 µM and 17.1 µM
COc1ccc2nc3cc(Cl)ccc3c(Nc3cc(CN4CCCC4)c(O)c(CN4CCCC4)c3)c2n1	1.47 µM	3.14 µM	1.25 µM	3.05 µM	0.902 µM	3.14 µM	2.66 µM	11.9 µM	5.69 µM	66.3 µM	1.44 µM	12.7 µM	1.64 µM	6.51 µM	1.71 µM	3.26 µM	1.89 µM	3.88 µM	2.92 µM	15.5 µM
Nc1cccc2c1C(=O)c1cccc(NC(=O)c3ccccc3)c1C2=O	0.0655 µM	0.618 µM	0.363 µM	2.95 µM	0.165 µM	> 100 µM	1.92 µM	> 100 µM	1.13 µM	8.13 µM	0.474 µM	> 100 µM	0.212 µM		0.614 µM	64.8 µM	0.292 µM	13 µM	0.425 µM	9.24 µM
COc1cc(C(=O)c2cocc2C(=O)c2ccc3c(c2)OCO3)cc(OC)c1OC		1.85 µM		4.43 µM		> 56.2 µM		> 66.3 µM		47.2 µM		33.9 µM		1.3 µM		> 45.7 µM		1.45 µM		47.3 µM
CC(C)(C)OC(=O)Nc1ccc2c(c1)C(NC(=O)Nc1cccc(C#N)c1)CC(C)(C)O2 (stereo not drawn)	3.61 µM	54.7 µM	5.89 µM	70.2 µM	2.18 µM	30 µM	28 µM	> 100 µM	6.14 µM	> 100 µM	3.36 µM	> 100 µM	2.78 µM	> 64.6 µM	1.07 µM	6.93 µM	5.19 µM	44.1 µM	8.68 µM	> 100 µM
O=c1/c(=N\Nc2ccccc2)c2cccc3ccc4cccc1c4c32		> 100 µM		> 100 µM		> 100 µM		> 100 µM		> 100 µM		> 100 µM		> 100 µM		> 100 µM				> 100 µM
